Test results from a melting point compilation (Tetko et al.).

Compound: CN(C)c1nc[nH]c(=O)c1N
- melting point: 158 to 160 °C

Compound: O=C(O)c1ccc2c(=O)n(-c3ccc(F)cc3)c(=O)[nH]c2c1
- melting point: 397 to 399 °C

Compound: Cc1cc(C)n(CCCCl)n1
- melting point: 202 to 204 °C

Compound: CCOc1ccc(NS(=O)(=O)c2ccc(C)c(N)c2)cc1
- melting point: 116 to 118 °C

Compound: CC(C)Nc1ncccc1C(=O)O
- melting point: 169 to 171 °C

Compound: NC(=O)COc1ccc(C(=O)O)cc1
- melting point: 273 to 275 °C

Compound: O=C(CC1CCOCC1)c1ccccc1
- melting point: 60 to 62 °C

Compound: CCOc1ccc(N2CC(C(=O)O)CC2=O)cc1 (stereo unspecified)
- melting point: 133 to 137 °C

Compound: COc1ccc(Br)cc1NC(=O)C1CCC1
- melting point: 84 to 86 °C

Compound: BrCCCOc1ccc2ccccc2c1
- melting point: 56 to 58 °C

Compound: Cc1c(C(=O)O)sc2nc3n(c(=O)c12)CCC3
- melting point: 281 to 283 °C

Compound: Cc1cc(C(=O)O)c(N)c([N+](=O)[O-])c1
- melting point: 249 to 251 °C

Compound: COc1ccc(C2CCCCC2=O)cc1F (stereo unspecified)
- melting point: 78 to 80 °C

Compound: O=C1NC(=O)C(c2cc(Br)ccc2F)N1 (stereo unspecified)
- melting point: 194 to 196 °C

Compound: CNCc1ccc(C(=O)NC)o1
- melting point: 65 to 67 °C

Compound: Cn1nnc2cc(CCl)ccc21
- melting point: 83 to 85 °C

Compound: COc1cccc(Oc2ccc(N)cc2)c1
- melting point: 62 to 64 °C

Compound: Clc1cc(-n2ccnc2)ncn1
- melting point: 127 to 129 °C

Compound: O=c1[nH]c2ccccc2nc1NO
- melting point: 258 to 260 °C

Compound: COc1ccccc1-c1nnc(SCC(=O)O)n1N
- melting point: 181 to 183 °C

Compound: Cc1sc2nc(CCl)nc(Cl)c2c1C
- melting point: 142 to 144 °C

Compound: OC1CCc2c(OCc3ccccc3)cccc21 (stereo unspecified)
- melting point: 86 to 88 °C

Compound: CC(=O)N1CCN(c2cc(C#N)ccn2)CC1
- melting point: 107 to 109 °C

Compound: Cc1cc(Br)cc(Cl)c1C(=O)O
- melting point: 154 to 156 °C

Compound: O=C(CCl)c1nnc(-c2ccccc2)o1
- melting point: 123 to 125 °C

Compound: CN(C(=O)CCl)c1nccs1
- melting point: 123 to 125 °C

Compound: Fc1ccc(-c2ccn[nH]2)cc1Cl
- melting point: 109 to 111 °C

Compound: NNC(=O)Cc1ccc2ccccc2c1
- melting point: 189 to 191 °C

Compound: O=[N+]([O-])c1cc(Cc2ccccc2)ccc1O
- melting point: 70 to 72 °C

Compound: O=C(CCl)N(Cc1cccs1)C1CCS(=O)(=O)C1 (stereo unspecified)
- melting point: < 17 °C

Compound: Ic1ccc(OCc2ccccn2)cc1
- melting point: 74 to 76 °C

Compound: NS(=O)(=O)c1ccc(Sc2ccccc2C(=O)O)cc1
- melting point: 226 to 228 °C

Compound: O=C(O)c1cccc(Nc2ncccn2)c1
- melting point: 270 to 272 °C

Compound: Nc1cc(S(=O)(=O)NC2CC2)ccc1Cl
- melting point: 125 to 127 °C

Compound: CCN(CC)c1ccc(C=C[N+](=O)[O-])cc1
- melting point: 98 to 100 °C

Compound: CN(c1ccc(OCC(=O)O)cc1)S(=O)(=O)c1cccs1
- melting point: 145 to 147 °C

Compound: Cc1ccccc1NCC(=O)N1CCCCC1
- melting point: 78 to 80 °C

Compound: NNc1ccc([N+](=O)[O-])cc1Cl
- melting point: 145 to 147 °C

Compound: COc1ccc(-c2nnc(N)[nH]2)c(OC)c1
- melting point: 214 to 216 °C

Compound: O=C(Nc1ccc(OC(F)(F)F)cc1)OCC(F)(F)F
- melting point: 64 to 66 °C

Compound: Sc1nnc(C2CC2)o1
- melting point: 131 to 133 °C

Compound: O=c1cc(CCl)c2cc(O)c(O)cc2o1
- melting point: 178 to 180 °C

Compound: CCN1CCN(c2ccc(Cl)cc2N)CC1
- melting point: 110 to 112 °C

Compound: Cc1nn(-c2ccccc2)c(C)c1NC(=O)C(C)Cl (stereo unspecified)
- melting point: 134 to 136 °C

Compound: CC(C)NCc1nnc(-c2ccc([N+](=O)[O-])cc2)o1
- melting point: 175 to 182 °C

Compound: Nc1ccccc1Cc1ccccc1
- melting point: 55 to 57 °C

Compound: COc1ccc(C(=O)CC(C)(C)C(=O)O)cc1
- melting point: 166 to 168 °C

Compound: O=C(O)c1cc2occc2s1
- melting point: 188 to 190 °C

Compound: O=C(O)c1c[nH]nc1C1CCCCC1
- melting point: 269 to 271 °C

Compound: CCS(=O)(=O)N1CCC(C(=O)O)(c2ccccc2)CC1
- melting point: 203 to 205 °C

Compound: CCOC(=O)c1cnc2c(C)cc(C)cc2c1Cl
- melting point: 72 to 74 °C

Compound: CC(C)(C)S(=O)Cc1cccc(N)c1 (stereo unspecified)
- melting point: 121 to 123 °C

Compound: COC(=O)c1n[nH]c2ccccc12
- melting point: 159 to 161 °C

Compound: CC(=O)c1cc2c(cc1O)OCO2
- melting point: 114 to 116 °C

Compound: CCCc1ccc(C(=O)CCl)cc1
- melting point: 30 to 32 °C

Compound: O=C1C=CC(=O)N1C1CCOCC1
- melting point: 169 to 171 °C
